Reference: patent publication US20240043427A1 (Gilead Sciences, Inc., priority 2020, published 2024)

Columns and labels:
CD73 [1] = biological target: T1, CD73 (Homo sapiens (Human), UniProt P21589); type: biochemical; conditions: 1 mM NaH2PO4 in enzyme buffer, CD73 0.3 nM, AMP 15 uM
CD73 [2] = biological target: T1, CD73; assay: MDA-MB-231 Cell Based CD73 Activity Assay (DMEM); conditions: MDA-MB-231-GFP cells, DMEM medium with 10% human plasma, 200 uM AMP

T1 sequence (P21589 27-574): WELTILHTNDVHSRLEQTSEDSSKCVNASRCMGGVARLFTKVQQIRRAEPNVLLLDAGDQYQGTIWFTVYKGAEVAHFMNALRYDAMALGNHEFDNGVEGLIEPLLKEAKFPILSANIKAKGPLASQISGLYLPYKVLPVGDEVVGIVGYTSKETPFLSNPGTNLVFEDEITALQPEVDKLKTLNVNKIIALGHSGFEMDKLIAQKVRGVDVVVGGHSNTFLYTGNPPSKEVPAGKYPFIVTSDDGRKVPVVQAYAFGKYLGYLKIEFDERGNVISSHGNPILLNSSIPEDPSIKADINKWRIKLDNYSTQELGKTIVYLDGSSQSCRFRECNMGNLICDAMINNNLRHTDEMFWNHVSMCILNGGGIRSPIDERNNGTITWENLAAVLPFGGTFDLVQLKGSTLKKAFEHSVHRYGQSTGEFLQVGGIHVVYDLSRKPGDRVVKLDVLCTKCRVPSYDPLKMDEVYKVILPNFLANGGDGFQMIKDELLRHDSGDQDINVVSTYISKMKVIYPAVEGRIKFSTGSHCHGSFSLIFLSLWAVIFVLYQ

SMILES | IC50 (CD73 [1]) [nM] | EC50 (CD73 [2]) [nM]
CC1(C)C2CN(c3cc(-c4c[nH]c(=O)[nH]c4=O)nn4ccnc34)CC21 (stereo not drawn) [Example 228, 5-(8-(6,6-dimethyl-3-azabicyclo[3.1.0]hexan-3-yl)imidazo[1,2-b]pyridazin-6-yl)pyrimidine-2,4(1H,3H)-dione] | 31.2 | 146
O=c1[nH]cc(-c2cc(N3CC[C@H](C(F)F)C3)c3nccn3n2)c(=O)[nH]1 [Example 229, (S)-5-(8-(3-(difluoromethyl)pyrrolidin-1-yl)imidazo[1,2-b]pyridazin-6-yl)pyrimidine-2,4(1H,3H)-dione] | 56.9 | 175
O=c1[nH]cc(-c2cc(N3CC[C@@H](C(F)F)C3)c3nccn3n2)c(=O)[nH]1 [Example 230, (R)-5-(8-(3-(difluoromethyl)pyrrolidin-1-yl)imidazo[1,2-b]pyridazin-6-yl)pyrimidine-2,4(1H,3H)-dione] | 39.5 | 64.7
N#Cc1ccc(OC2CN(c3cc(-c4c[nH]c(=O)[nH]c4=O)nn4ccnc34)CC2(F)F)cc1 (stereo not drawn) [Example 231, 4-((1-(6-(2,4-dioxo-1,2,3,4-tetrahydropyrimidin-5-yl)imidazo[1,2-b]pyridazin-8-yl)-4,4-difluoropyrrolidin-3-yl)oxy)benzonitrile] | 1.62 | 2
O=c1[nH]cc(-c2cc(N3CC(Oc4ccc(C(F)F)cn4)C(F)(F)C3)c3nccn3n2)c(=O)[nH]1 (stereo not drawn) [Example 232, 5-(8-(4-((5-(difluoromethyl)pyridin-2-yl)oxy)-3,3-difluoropyrrolidin-1-yl)imidazo[1,2-b]pyridazin-6-yl)pyrimidine-2,4(1H,3H)-dione] | 2.15 | 6.18
O=C(Nc1ccccc1F)OC1CN(c2cc(-c3c[nH]c(=O)[nH]c3=O)nn3ccnc23)CC1(F)F (stereo not drawn) [Example 233, 1-(6-(2,4-dioxo-1,2,3,4-tetrahydropyrimidin-5-yl)imidazo[1,2-b]pyridazin-8-yl)-4,4-difluoropyrrolidin-3-yl (2-fluorophenyl)carbamate] | 1.17 | 0.8
O=C(Nc1ccccc1F)OCC(F)(F)COc1cc(-c2c[nH]c(=O)[nH]c2=O)nn2ccnc12 [Example 234, 3-((6-(2,4-dioxo-1,2,3,4-tetrahydropyrimidin-5-yl)imidazo[1,2-b]pyridazin-8-yl)oxy)-2,2-difluoropropyl (2-fluorophenyl)carbamate] | 0.62 | 6.56
O=C(Nc1ccc(F)cc1F)O[C@H]1CN(c2cc(-c3c[nH]c(=O)[nH]c3=O)nn3ccnc23)CC1(F)F [Example 235, (S)-1-(6-(2,4-dioxo-1,2,3,4-tetrahydropyrimidin-5-yl)imidazo[1,2-b]pyridazin-8-yl)-4,4-difluoropyrrolidin-3-yl (2,4-difluorophenyl)carbamate] | 0.96 | 0.82
Cc1ccc(NC(=O)O[C@H]2CN(c3cc(-c4c[nH]c(=O)[nH]c4=O)nn4ccnc34)CC2(F)F)c(F)c1 [Example 236, (S)-1-(6-(2,4-dioxo-1,2,3,4-tetrahydropyrimidin-5-yl)imidazo[1,2-b]pyridazin-8-yl)-4,4-difluoropyrrolidin-3-yl (2-fluoro-4-methylphenyl)carbamate] | 1.02 | 3.04
N#Cc1ccc(O[C@H]2CN(c3cc(-c4c[nH]c(=O)[nH]c4=O)nn4ccnc34)CC2(F)F)cc1 [Example 237, (S)-4-((1-(6-(2,4-dioxo-1,2,3,4-tetrahydropyrimidin-5-yl)imidazo[1,2-b]pyridazin-8-yl)-4,4-difluoropyrrolidin-3-yl)oxy)benzonitrile] | 0.7 | 1.1
O=C(Nc1ccc(F)cc1F)OCC(F)(F)COc1cc(-c2c[nH]c(=O)[nH]c2=O)nn2ccnc12 [Example 238, 3-((6-(2,4-dioxo-1,2,3,4-tetrahydropyrimidin-5-yl)imidazo[1,2-b]pyridazin-8-yl)oxy)-2,2-difluoropropyl (2,4-difluorophenyl)carbamate] | 0.36 | 5.18
O=C(Nc1c(F)cc(F)cc1F)O[C@H]1CN(c2cc(-c3c[nH]c(=O)[nH]c3=O)nn3ccnc23)CC1(F)F [Example 239, (S)-1-(6-(2,4-dioxo-1,2,3,4-tetrahydropyrimidin-5-yl)imidazo[1,2-b]pyridazin-8-yl)-4,4-difluoropyrrolidin-3-yl (2,4,6-trifluorophenyl)carbamate] | 0.86 | 1.17
O=c1[nH]cc(-c2cc(N3CC[C@@H](Oc4ccc(F)cc4)C3)c3nccn3n2)c(=O)[nH]1 [Example 240, (R)-5-(8-(3-(4-fluorophenoxy)pyrrolidin-1-yl)imidazo[1,2-b]pyridazin-6-yl)pyrimidine-2,4(1H,3H)-dione] | 0.28 | 3.79
O=C(Nc1ccccc1F)O[C@H]1CN(c2cc(-c3c[nH]c(=O)[nH]c3=O)nn3ccnc23)CC1(F)F [Example 241, (S)-1-(6-(2,4-dioxo-1,2,3,4-tetrahydropyrimidin-5-yl)imidazo[1,2-b]pyridazin-8-yl)-4,4-difluoropyrrolidin-3-yl (2-fluorophenyl)carbamate] | 2.13 | 1.41
O=c1[nH]cc(-c2cc(N3CCC(Oc4ccccc4)C3)c3nccn3n2)c(=O)[nH]1 (stereo not drawn) [Example 242, 5-(8-(3-phenoxypyrrolidin-1-yl)imidazo[1,2-b]pyridazin-6-yl)pyrimidine-2,4(1H,3H)-dione] | 0.22 | 2.43
CC1(O)CCN(c2cc(-c3c[nH]c(=O)[nH]c3=O)nn3ccnc23)C1 (stereo not drawn) [Example 243, 5-(8-(3-hydroxy-3-methylpyrrolidin-1-yl)imidazo[1,2-b]pyridazin-6-yl)pyrimidine-2,4(1H,3H)-dione] | 22.2 | 56.1
O=c1[nH]cc(-c2cc(N3CC(F)(C(F)(F)F)C3)n3nccc3n2)c(=O)[nH]1 [Example 244, 5-(7-(3-fluoro-3-(trifluoromethyl)azetidin-1-yl)pyrazolo[1,5-a]pyrimidin-5-yl)pyrimidine-2,4(1H,3H)-dione] | 108 | 574
CC(=O)NC1CCN(c2cc(-c3c[nH]c(=O)[nH]c3=O)nc3ccnn23)C1 (stereo not drawn) [Example 245, N-(1-(5-(2,4-dioxo-1,2,3,4-tetrahydropyrimidin-5-yl)pyrazolo[1,5-a]pyrimidin-7-yl)pyrrolidin-3-yl)acetamide] | 170 | 747
CC1(O)CCN(c2cc(-c3c[nH]c(=O)[nH]c3=O)nc3ccnn23)C1 (stereo not drawn) [Example 246, 5-(7-(3-hydroxy-3-methylpyrrolidin-1-yl)pyrazolo[1,5-a]pyrimidin-5-yl)pyrimidine-2,4(1H,3H)-dione] | 168 | 213
N#Cc1ccc(C2CN(c3cc(-c4c[nH]c(=O)[nH]c4=O)nn4ccnc34)C2)cc1 [Example 247, 4-(1-(6-(2,4-dioxo-1,2,3,4-tetrahydropyrimidin-5-yl)imidazo[1,2-b]pyridazin-8-yl)azetidin-3-yl)benzonitrile] | 41.9 | 93.6
O=c1[nH]cc(-c2cc(N3CCC(c4ccc(C(F)(F)F)cc4)C3)c3nccn3n2)c(=O)[nH]1 (stereo not drawn) [Example 248, 5-(8-(3-(4-(trifluoromethyl)phenyl)pyrrolidin-1-yl)imidazo[1,2-b]pyridazin-6-yl)pyrimidine-2,4(1H,3H)-dione] | 15.1 | 36.3
O=c1[nH]cc(-c2cc(N3CCC(c4cccc(C(F)(F)F)c4)C3)c3nccn3n2)c(=O)[nH]1 (stereo not drawn) [Example 249, 5-(8-(3-(3-(trifluoromethyl)phenyl)pyrrolidin-1-yl)imidazo[1,2-b]pyridazin-6-yl)pyrimidine-2,4(1H,3H)-dione] | 46.1 | 249
O=c1[nH]cc(-c2cc(N3CCC(c4ccccc4C(F)(F)F)C3)c3nccn3n2)c(=O)[nH]1 (stereo not drawn) [Example 250, 5-(8-(3-(2-(trifluoromethyl)phenyl)pyrrolidin-1-yl)imidazo[1,2-b]pyridazin-6-yl)pyrimidine-2,4(1H,3H)-dione] | 110 | 687
COc1ccc(C2CN(c3cc(-c4c[nH]c(=O)[nH]c4=O)nn4ccnc34)C2)cc1 [Example 251, 5-(8-(3-(4-methoxyphenyl)azetidin-1-yl)imidazo[1,2-b]pyridazin-6-yl)pyrimidine-2,4(1H,3H)-dione] | 17.6 | 125
O=c1[nH]cc(-c2cc(N3CC(c4ccc(OC(F)(F)F)cc4)C3)c3nccn3n2)c(=O)[nH]1 [Example 252, 5-(8-(3-(4-(trifluoromethoxy)phenyl)azetidin-1-yl)imidazo[1,2-b]pyridazin-6-yl)pyrimidine-2,4(1H,3H)-dione] | 174 | 1240
O=c1[nH]cc(-c2cc(N3CCC(F)(c4ccccc4)C3)c3nccn3n2)c(=O)[nH]1 (stereo not drawn) [Example 253, 5-(8-(3-fluoro-3-phenylpyrrolidin-1-yl)imidazo[1,2-b]pyridazin-6-yl)pyrimidine-2,4(1H,3H)-dione] | 20 | 160
O=c1[nH]cc(-c2cc(N3CCC4CC43)c3nccn3n2)c(=O)[nH]1 (stereo not drawn) [Example 254, 5-(8-(2-azabicyclo[3.1.0]hexan-2-yl)imidazo[1,2-b]pyridazin-6-yl)pyrimidine-2,4(1H,3H)-dione] | 26.6 | 136
O=c1[nH]cc(-c2cc(N3CCC(F)(c4ccc(F)cc4)C3)c3nccn3n2)c(=O)[nH]1 (stereo not drawn) [Example 255, 5-(8-(3-fluoro-3-(4-fluorophenyl)pyrrolidin-1-yl)imidazo[1,2-b]pyridazin-6-yl)pyrimidine-2,4(1H,3H)-dione] | 17.5 | 113
O=c1[nH]cc(-c2cc(N3CCC(F)(c4ccc(C(F)(F)F)cc4)C3)c3nccn3n2)c(=O)[nH]1 (stereo not drawn) [Example 256, 5-(8-(3-fluoro-3-(4-(trifluoromethyl)phenyl)pyrrolidin-1-yl)imidazo[1,2-b]pyridazin-6-yl)pyrimidine-2,4(1H,3H)-dione] | 43.1 | 185
O=c1[nH]cc(-c2cc(N3CCC4CCC43)c3nccn3n2)c(=O)[nH]1 (stereo not drawn) [Example 257, 5-(8-(2-azabicyclo[3.2.0]heptan-2-yl)imidazo[1,2-b]pyridazin-6-yl)pyrimidine-2,4(1H,3H)-dione] | 51.7 | 103
